Read-outs that look alike come from different tables or passages of the source. One block for each compound: values may come before it.
Experiments:
[1] = Concentration and elimination of ADP and its metabolites in liver, kidney, muscle, fat/skin after oral ^3H-ADP for 7 d; assay type: in vivo, carp; conditions: for concentration at 0.25 d / concentration at 1 d / concentration at 3 d / concentration at 7 d: carp, oral; for half-life: po
Protocol: (§1) A total of 36 animals from each species (swine n = 24) were randomly assigned to six equal treatment groups and administered a single daily dose of ^3 H-ADP at 5 mg/kg b. w. (0.1 Ci/g) through oral gavage for 7 consecutive days. All the animals were housed on the basis of their group in the cages or aquaria throughout the whole study period. A group of animals was slaughtered through exsanguination under diethyl ether inhalation of anesthesia in the period of 6 h, 1, 3, 7, 14, and 21 d after the administration. The blood samples were immediately collected into the heparinized tubes and was centrifuged at 1920 × g at 4 °C for 10 min to obtain the plasma. The tissues from the heart, liver, spleen, lung, kidney, craw (broilers), stomach, intestine, fat, skin, muscle, thymus, pancreas, bile, bladder, hair (scale for carp), genital gland, adrenal glands, swim bladder (carp), brain, lymph, and bursa (broilers) were carefully excised and collected. The tissues were thoroughly rinsed with the deionized water to remove the residuary blood, blotted to dryness, and finally to perform the homogenization. In order to avoid cross-contamination the dissecting instruments were washed during the tissue procurements. The blank tissues were collected in order to provide control matrices. The total radioactivity levels in each sample were determined through LSC. The samples extracted from the plasma, bile, and tissues of the liver, kidney, muscle, and fat/skin were analyzed through LC/MS-IT-TOF and v. ARC radiometric detection for metabolite profiling. The blank samples were used as control to determine the background radioactivity or the endogenous nondrug-related ions observed within respective matrices or their extracts.
(§2) The feces and tissues (2 g) were diluted with a mixture of methanol and chloroform (1:3, v:v; 2 mL/g homogenate). This procedure was carried out in a fume hood for the safety aspects. The pH value was adjusted to 9.0 with NH4OH. The mixture was vortexed and sonicated for 5 min and 10 min, respectively, and finally the samples were centrifuged at 7690 × g for 10 min. The supernatant was aspirated and then transferred into a new centrifuge tube. The obtained pellet was again subjected to the same process of vortex, ultrasonication, extraction, and centrifugation. The combined supernatant was concentrated under a stream of nitrogen in a water bath at 40 °C. The residue was reconstituted with 0.3 mL of methanol–water (1:9, v:v) before the injection into the LC-v. ARC/MS-IT-TOF system for analysis.
(§3) ADP and its metabolites in the prepared samples were determined with a v. ARC radiometric detector and a hybrid IT/TOF mass spectrometer connected to the HPLC system (Shimadzu Corp., Kyoto, Japan). The LC system was equipped with a solvent delivery pump (LC-20AD), an auto-sampler (SIL-20AC), a degasser (DGU-20 A 3), a photodiode array detector (SPD-M20A), a communication base module (CBM-20 A), and a column oven (CTO-20AC). The chromatographic separation was achieved by using an Agilent extend-C18 column (2.1 mm × 150 mm, 5 μm) with a gradient mobile phase of A (0.01% ammonia and 5 mM ammonium acetate in water) and B (methanol) at a flow rate of 0.2 mL/min. The column temperature was maintained at 35 °C. Various HPLC methods were performed because of the large number of different metabolites to be analyzed. For the porcine sample, method 1 started at 5% B and increased to 20% B over 35 min, then to 55% B by 60 min, followed by re-equilibration for another 10 min. For the remaining samples, method 2 started at 10% B and increased to 60% B over 30 min, subsequently was maintained at 60% B for an additional 10 min, and then changed to 90% B over 2 min and maintained for 2 min. Afterwards, a re-equilibration step (decreased to 10% B over 1 min and maintained at 10% B for additional 9 min) was followed. For each matrix, more than 98% of the radioactivity injected into the column was eluted during the running time of the gradient program. […]

[2] = as above; assay type: in vivo, broilers; conditions: for concentration at 0.25 d / concentration at 1 d / concentration at 3 d: oral; for half-life: po
Protocol: as §1, §2, §3

[3] = as above; assay type: in vivo, rats; conditions: for half-life: po; for concentration at 0.25 d / concentration at 1 d / concentration at 3 d / concentration at 7 d: oral
Protocol: as §1, §2, §3

[4] = broiler chicken, kidney, 5 mg/kg b.w.
[5] = broiler chicken, muscle, 5 mg/kg b.w.
[6] = broilers, muscle, 5 mg/kg b. w.
[7] = rat kidney, after 5 mg/kg b. w. for 7 days, read-out: t1/2 of the individual compound (converted)
[8] = rat liver, after 5 mg/kg b. w. for 7 days, read-out: t1/2 of the individual compound (converted)

concentration at 0.25 d ([1]; kidney, 5 mg/kg b.w.): 780 ± 160 ng/g
concentration at 1 d ([1]; kidney, 5 mg/kg b.w.): 60 ± 10 ng/g
concentration at 0.25 d ([1]; liver, 5 mg/kg b. w.): 440 ± 60 ng/g
concentration at 1 d ([1]; liver, 5 mg/kg b. w.): 240 ± 40 ng/g
concentration at 0.25 d ([1]; skin, 5 mg/kg b. w.): 70 ± 10 ng/g
concentration at 1 d ([1]; skin, 5 mg/kg b. w.): 50 ± 10 ng/g
concentration at 0.25 d [2, 4]: 1200 ± 80 ng/g
concentration at 1 d [2, 4]: 550 ± 140 ng/g
concentration at 0.25 d [2, 5]: 60 ± 20 ng/g
concentration at 0.25 d ([2]; broilers, fat, 5 mg/kg b. w.): 30 ± 10 ng/g
concentration at 0.25 d ([2]; broilers, liver, 5 mg/kg b. w.): 380 ± 50 ng/g
concentration at 1 d ([2]; broilers, liver, 5 mg/kg b. w.): 190 ± 50 ng/g
concentration at 1 d [2, 6]: 10 ng/g
half-life [3, 7]: 16.8 h
half-life [3, 8]: 38.6 h
concentration at 0.25 d ([3]; rat, kidney, 5 mg/kg b.w.): 370 ± 130 ng/g
concentration at 1 d ([3]; rat, kidney, 5 mg/kg b.w.): 120 ± 30 ng/g
concentration at 3 d ([3]; rat, kidney, 5 mg/kg b.w.): 20 ng/g
concentration at 0.25 d ([3]; rat, liver, 5 mg/kg b. w.): 230 ± 60 ng/g
concentration at 1 d ([3]; rat, liver, 5 mg/kg b. w.): 120 ± 20 ng/g
concentration at 3 d ([3]; rat, liver, 5 mg/kg b. w.): 60 ± 20 ng/g
concentration at 0.25 d ([3]; rat, muscle, 5 mg/kg b.w.): 40 ± 10 ng/g
Compound: COc1cc(Cc2cnc(N)nc2N)cc(OC)c1N [A2, N-didesmethyl-ADP]

concentration at 0.25 d ([1]; kidney, 5 mg/kg b.w.): 7990 ± 1650 ng/g
concentration at 1 d ([1]; kidney, 5 mg/kg b.w.): 1730 ± 330 ng/g
concentration at 3 d ([1]; kidney, 5 mg/kg b.w.): 820 ± 150 ng/g
concentration at 7 d ([1]; kidney, 5 mg/kg b.w.): 380 ± 30 ng/g
concentration at 0.25 d ([1]; liver, 5 mg/kg b. w.): 1930 ± 250 ng/g
concentration at 1 d ([1]; liver, 5 mg/kg b. w.): 770 ± 130 ng/g
concentration at 3 d ([1]; liver, 5 mg/kg b. w.): 160 ± 30 ng/g
concentration at 7 d ([1]; liver, 5 mg/kg b. w.): 20 ng/g
concentration at 0.25 d ([1]; muscle, 5 mg/kg b.w.): 300 ± 80 ng/g
concentration at 1 d ([1]; muscle, 5 mg/kg b.w.): 270 ± 70 ng/g
concentration at 3 d ([1]; muscle, 5 mg/kg b.w.): 100 ± 20 ng/g
concentration at 0.25 d ([1]; skin, 5 mg/kg b. w.): 550 ± 90 ng/g
concentration at 1 d ([1]; skin, 5 mg/kg b. w.): 450 ± 130 ng/g
concentration at 3 d ([1]; skin, 5 mg/kg b. w.): 140 ± 20 ng/g
concentration at 7 d ([1]; skin, 5 mg/kg b. w.): 50 ± 10 ng/g
half-life ([1]; carp kidney, after 5 mg/kg b. w. for 7 days, read-out: t1/2 of the individual compound (converted)): 67.4 h
half-life ([1]; carp liver, after 5 mg/kg b. w. for 7 days, read-out: t1/2 of the individual compound (converted)): 26.2 h
half-life ([1]; carp muscle, after 5 mg/kg b. w. for 7 days, read-out: t1/2 of the individual compound (converted)): 49.2 h
half-life ([1]; carp skin, after 5 mg/kg b. w. for 7 days, read-out: t1/2 of the individual compound (converted)): 47.8 h
half-life ([1]; tissues (liver, kidney, muscle, fat/skin), 5 mg/kg, carp tissues, read-out: t1/2 of the individual compound, range over tissues): 26.2 to 67.4 h
concentration at 0.25 d [2, 4]: 6060 ± 970 ng/g
concentration at 1 d [2, 4]: 2920 ± 530 ng/g
concentration at 3 d [2, 4]: 370 ± 100 ng/g
concentration at 0.25 d [2, 5]: 200 ± 80 ng/g
concentration at 0.25 d ([2]; broilers, fat, 5 mg/kg b. w.): 300 ± 100 ng/g
concentration at 1 d ([2]; broilers, fat, 5 mg/kg b. w.): 60 ± 20 ng/g
concentration at 0.25 d ([2]; broilers, liver, 5 mg/kg b. w.): 3090 ± 680 ng/g
concentration at 1 d ([2]; broilers, liver, 5 mg/kg b. w.): 740 ± 120 ng/g
concentration at 3 d ([2]; broilers, liver, 5 mg/kg b. w.): 370 ± 100 ng/g
concentration at 1 d [2, 6]: 90 ± 20 ng/g
half-life ([2]; broiler kidney, after 5 mg/kg b. w. for 7 days, read-out: t1/2 of the individual compound (converted)): 16.3 h
half-life ([2]; broiler liver, after 5 mg/kg b. w. for 7 days, read-out: t1/2 of the individual compound (converted)): 25.2 h
half-life ([2]; tissues (liver, kidney, muscle, fat/skin), 5 mg/kg, broilers tissues, read-out: t1/2 of the individual compound, range over tissues): 16.3 to 25.2 h
half-life [3, 7]: 50.6 h
half-life [3, 8]: 64.6 h
concentration at 0.25 d ([3]; rat, fat, 5 mg/kg b. w.): 70 ± 20 ng/g
concentration at 0.25 d ([3]; rat, kidney, 5 mg/kg b.w.): 2650 ± 970 ng/g
concentration at 1 d ([3]; rat, kidney, 5 mg/kg b.w.): 320 ± 120 ng/g
concentration at 3 d ([3]; rat, kidney, 5 mg/kg b.w.): 120 ± 20 ng/g
concentration at 7 d ([3]; rat, kidney, 5 mg/kg b.w.): 40 ± 10 ng/g
concentration at 0.25 d ([3]; rat, liver, 5 mg/kg b. w.): 1940 ± 580 ng/g
concentration at 1 d ([3]; rat, liver, 5 mg/kg b. w.): 390 ± 90 ng/g
concentration at 3 d ([3]; rat, liver, 5 mg/kg b. w.): 180 ± 40 ng/g
concentration at 7 d ([3]; rat, liver, 5 mg/kg b. w.): 80 ± 10 ng/g
concentration at 0.25 d ([3]; rat, muscle, 5 mg/kg b.w.): 250 ± 100 ng/g
concentration at 1 d ([3]; rat, muscle, 5 mg/kg b.w.): 140 ± 30 ng/g
half-life ([3]; rat, tissues (liver, kidney, muscle, fat/skin), 5 mg/kg, rats tissues, read-out: t1/2 of the individual compound, range over tissues): 50.6 to 64.6 h
Compound: CNc1c(OC)cc(Cc2cnc(N)nc2N)cc1OC [A1, N-monodesmethyl-ADP]

— paper PMC4738305, “Metabolism and Disposition of Aditoprim in Swine, Broilers, Carp and Rats” (Scientific Reports, 2016)
